Experimental data reported in ChEMBL document CHEMBL4342407, “Thieno[2,3-d]pyrimidine as a promising scaffold in medicinal chemistry: Recent advances” (Bioorg Med Chem, 2019).

Assays:
Mus musculus = test: Analgesic activity in Swiss albino mouse assessed as protection against acetic acid-induced writhing at 15 mg/kg, po pretreated for 30 mins followed by acetic acid challenge and measured after 20 mins relative to control; type: functional
Rattus norvegicus [1] = test: Antiinflammatory activity in Sprague-Dawley rat assessed as inhibition of carrageenan-induced edema at 15 mg/kg, po pretreated for 1 hr followed by carrageenan challenge and measured after 4 hrs by mercury plethysmometer relative to control; type: functional
[2] = Ulcerogenic activity in Sprague-Dawley rat assessed as ulcer index at 20 mg/kg, ip pretreated followed by pylorus ligation and measured at 4 hrs post ligation; type: toxicity, organism-based; details: in vivo
Klebsiella pneumoniae = test: Antibacterial activity against Klebsiella pneumoniae assessed as zone inhibition at 100 ug/ml; type: functional; details: read-out: IZ
Bacillus subtilis = test: Antibacterial activity against Bacillus subtilis assessed as zone inhibition at 100 ug/ml; type: functional; details: read-out: IZ
Escherichia coli = test: Antibacterial activity against Escherichia coli assessed as zone inhibition at 100 ug/ml; type: functional; details: read-out: IZ
Staphylococcus aureus = test: Antibacterial activity against Staphylococcus aureus assessed as zone inhibition at 100 ug/ml; type: functional; details: read-out: IZ
Hepatovirus A = test: Antiviral activity against Hepatitis A virus infected in HepG2 cells assessed as virus inhibition at 40 ug/L incubated overnight with virus followed by inoculation and measured after 1 hr by crystal violet staining based plaque reduction assay; type: functional
Homo sapiens [3] = species on record: Homo sapiens; test: Selectivity ratio of Ki for human A1 receptor expressed in CHO cells to Ki for human A2A receptor expressed in CHO cells; type: cell-based
Homo sapiens [4] = species on record: Homo sapiens; test: Selectivity ratio of Ki for human A1 receptor expressed in CHO cells to Ki for human A3 receptor expressed in CHO cells; type: cell-based
Homo sapiens [5] = species on record: Homo sapiens; test: Selectivity ratio of Ki for human A2A receptor expressed in CHO cells to Ki for human A3 receptor expressed in CHO cells; type: cell-based
Adenosine receptor A1 = target: T1, Adenosine receptor A1 (Homo sapiens, UniProt P30542); test: Displacement of [3H]-CCPA binding from human A1 receptor expressed in CHO cells by radioligand competitive binding assay; type: cell-based
T1 sequence (P30542 whole entry): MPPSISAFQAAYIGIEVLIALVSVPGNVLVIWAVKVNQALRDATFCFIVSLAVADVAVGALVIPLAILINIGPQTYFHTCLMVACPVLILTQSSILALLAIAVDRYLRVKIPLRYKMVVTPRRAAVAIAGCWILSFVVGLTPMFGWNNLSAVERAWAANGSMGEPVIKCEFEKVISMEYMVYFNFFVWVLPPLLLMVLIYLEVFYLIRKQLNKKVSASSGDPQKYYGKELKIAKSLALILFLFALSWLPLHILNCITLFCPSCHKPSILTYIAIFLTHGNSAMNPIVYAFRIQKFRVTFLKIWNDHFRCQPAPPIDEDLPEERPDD

Adenosine receptor A2a = Adenosine receptor A2a (Homo sapiens, UniProt P29274); test: Displacement of [3H]-NECA from human A2A receptor expressed in CHO cells by radioligand competitive binding assay; type: cell-based
Adenosine receptor A3 = target: T2, Adenosine receptor A3 (Homo sapiens, UniProt P0DMS8); test: Displacement of [3H]-HEMADO from human A3 receptor expressed in CHO cells by radioligand competitive binding assay; type: cell-based
T2 sequence (P0DMS8 whole entry): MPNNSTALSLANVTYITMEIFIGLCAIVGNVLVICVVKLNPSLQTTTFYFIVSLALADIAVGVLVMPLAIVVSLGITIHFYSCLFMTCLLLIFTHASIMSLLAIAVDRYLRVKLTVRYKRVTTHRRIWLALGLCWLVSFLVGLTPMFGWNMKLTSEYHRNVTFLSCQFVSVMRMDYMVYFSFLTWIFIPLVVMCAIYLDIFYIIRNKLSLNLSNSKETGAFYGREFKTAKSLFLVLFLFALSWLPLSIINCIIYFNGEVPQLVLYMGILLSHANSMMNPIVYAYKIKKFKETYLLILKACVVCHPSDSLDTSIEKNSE

Human alphaherpesvirus 1 [6] = test: Antiviral activity against Herpes simplex virus 1 at 20 ug/10^5; type: functional
Human alphaherpesvirus 1 [7] = test: Antiviral activity against Herpes simplex virus 1 at 50 ug/10^5; type: functional
[8] = Inhibition of Influenza A virus H3N2 Neuraminidase
Rattus norvegicus [9] = test: Antiinflammatory activity in gamma irradiated rat assessed as reduction in serum IL-6 level at 150 mg/kg, ip administered once daily for 7 consecutive days by ELISA (reference value: 103.87 +/- 3.273 pg/ml); type: functional
Rattus norvegicus [10] = test: Antiinflammatory activity in gamma irradiated rat assessed as reduction in serum TNFalpha level at 150 mg/kg, ip administered once daily for 7 consecutive days by ELISA (reference value: 105.07 +/- 3.925 pg/ml); type: functional
Rattus norvegicus [11] = test: Antiinflammatory activity in gamma irradiated rat assessed as reduction in COX-2 level in liver tissue homogenates at 150 mg/kg, ip administered once daily for 7 consecutive days by ELISA (reference value: 89.50 +/- 2.617 ng/ml); type: functional
Rattus norvegicus [12] = test: Antiinflammatory activity in gamma irradiated rat assessed as reduction in NFkappaB level in liver tissue homogenates at 150 mg/kg, ip administered once daily for 7 consecutive days by ELISA (reference value: 258.33 +/- 4.216 pg/ml); type: functional
HCT-116 = test: Antiproliferative activity against human HCT116 after 18 hrs by MTT assay; type: functional, cell-based; details: HCT-116, 18 h
A549 = test: Antiproliferative activity against human A549 after 18 hrs by MTT assay; type: functional, cell-based; details: A549, 18 h
[13] = target: Cyclin-dependent kinase 2/cyclin E1 (Homo sapiens, UniProt P24941); test: Inhibition of CDK2/cyclin E (unknown origin) expressed in baculovirus infected Sf9 insect cells using GST-Rb as substrate in presence of [33P] ATP incubated for 30 mins
[14] = target: Cyclin-dependent kinase 4/cyclin D1 (Homo sapiens, UniProt P11802); test: Inhibition of CDK4/cyclin D1 (unknown origin) expressed in baculovirus infected Sf9 insect cells using GST-Rb as substrate in presence of [33P] ATP incubated for 30 mins
Homo sapiens [15] = species on record: Homo sapiens; test: Selectivity ratio of IC50 for CDK2/cyclin E (unknown origin) expressed in baculovirus infected Sf9 insect cells to IC50 for CDK4/cyclin D1 (unknown origin) expressed in baculovirus infected Sf9 insect cells

Sequence of Adenosine receptor A2a (P29274 whole entry): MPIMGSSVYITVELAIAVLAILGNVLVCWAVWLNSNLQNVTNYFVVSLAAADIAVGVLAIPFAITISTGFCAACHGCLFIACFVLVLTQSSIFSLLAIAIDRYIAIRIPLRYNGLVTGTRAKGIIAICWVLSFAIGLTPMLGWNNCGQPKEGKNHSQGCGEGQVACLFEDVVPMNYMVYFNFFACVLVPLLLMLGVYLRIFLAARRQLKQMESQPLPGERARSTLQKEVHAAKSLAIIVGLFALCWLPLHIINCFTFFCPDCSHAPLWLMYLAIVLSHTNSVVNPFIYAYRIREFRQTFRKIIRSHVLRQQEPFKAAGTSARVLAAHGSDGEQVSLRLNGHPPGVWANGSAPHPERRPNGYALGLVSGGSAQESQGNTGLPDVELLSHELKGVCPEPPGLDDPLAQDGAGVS
Sequence of Cyclin-dependent kinase 4/cyclin D1 (P11802 whole entry): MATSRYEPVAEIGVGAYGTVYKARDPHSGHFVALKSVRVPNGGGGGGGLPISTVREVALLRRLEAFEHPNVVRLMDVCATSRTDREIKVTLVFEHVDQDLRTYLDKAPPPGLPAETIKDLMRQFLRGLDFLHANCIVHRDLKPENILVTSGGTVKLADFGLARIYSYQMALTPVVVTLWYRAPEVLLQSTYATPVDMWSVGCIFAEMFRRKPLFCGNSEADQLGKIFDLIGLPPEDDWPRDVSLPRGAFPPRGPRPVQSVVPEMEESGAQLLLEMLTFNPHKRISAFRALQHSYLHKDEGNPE
Sequence of Cyclin-dependent kinase 4/cyclin D1 (P24385 whole entry, further chain): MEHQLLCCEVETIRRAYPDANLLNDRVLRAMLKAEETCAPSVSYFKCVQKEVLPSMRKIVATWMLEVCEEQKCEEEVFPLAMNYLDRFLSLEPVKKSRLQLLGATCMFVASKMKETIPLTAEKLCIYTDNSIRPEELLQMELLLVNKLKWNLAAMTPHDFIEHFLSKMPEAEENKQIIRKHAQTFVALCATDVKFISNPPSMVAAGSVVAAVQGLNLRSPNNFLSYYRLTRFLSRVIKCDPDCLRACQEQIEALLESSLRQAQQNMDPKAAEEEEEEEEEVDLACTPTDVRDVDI

Work on CC(=O)c1nn(-c2ccc(Cl)cc2)c2nc3sc(-c4ccccc4)c(C)c3c(=O)n12 yielded an Activity (Mus musculus) of 35%, an inhibition in vivo at 15 mg/kg (Rattus norvegicus [1]) of 74.5% and a UI [2] of 0.9.
Compound FC(F)(F)Oc1ccc(C2=NOC(c3cc4cncnc4s3)C2)cc1 (stereo unspecified) has a zone of inhibition at 100 µg/mL (Klebsiella pneumoniae) of 15 mm, a zone of inhibition at 100 µg/mL (Bacillus subtilis) of 12.5 mm and a zone of inhibition at 100 µg/mL (Escherichia coli) of 16.5 mm. It also gave a zone of inhibition at 100 µg/mL (Staphylococcus aureus) of 14.5 mm.
CC(=O)Cc1c(C(C)C)sc2nc(S)[nH]c(=S)c12 showed an Activity (Mus musculus) of 60%, an inhibition in vivo at 15 mg/kg (Rattus norvegicus [1]) of 71.6% and a UI [2] of 1.1.
With CC(=O)OC[C@H]1O[C@@H](Sc2nc3sc4c(c3c(=O)n2C)CCCCC4)[C@H](OC(C)=O)[C@@H](OC(C)=O)[C@@H]1OC(C)=O the “inhibition (INH)” value (Hepatovirus A) was 50%.
Work on Cc1sc2nc(NC(=O)c3ccccc3)[nH]c(=O)c2c1C yielded a Ratio Ki (Homo sapiens [3]) of over 46, a Ratio Ki (Homo sapiens [4]) of over 240 and a Ratio Ki (Homo sapiens [5]) of 5.24. The Ki (Adenosine receptor A1) was over 30 µM, the Ki (Adenosine receptor A2a) was 0.65 µM and the Ki (Adenosine receptor A3) was 0.124 µM.
Compound COCCSc1nc(C)nc2sc3c(c12)-c1ccccc1CC3 has an Activity (Human alphaherpesvirus 1 [6]) of 5% and an Activity (Human alphaherpesvirus 1 [7]) of 45%.
With c1cnc(C2=NOC(c3cc4cncnc4s3)C2)cn1 (stereo unspecified) the zone of inhibition at 100 µg/mL (Klebsiella pneumoniae) was 12.5 mm, the zone of inhibition at 100 µg/mL (Bacillus subtilis) was 11 mm and the zone of inhibition at 100 µg/mL (Escherichia coli) was 13 mm. The zone of inhibition at 100 µg/mL (Staphylococcus aureus) was 11.5 mm.
Compound O=C1CCC(=O)N1Nc1nc(-c2c[nH]c3ccccc23)nc2sc3c(c12)CCCC3 has an IC50 [8] of 0.021 µM.
For CC(=O)OC[C@H]1O[C@@H](Sc2nc3sc4c(c3c(=O)n2-c2ccccc2)CCCCC4)[C@H](OC(C)=O)[C@@H](OC(C)=O)[C@@H]1OC(C)=O, the “inhibition (INH)” value (Hepatovirus A) was 50%.
For CC(=O)Nc1nc2sc(C)c(C)c2c(=O)[nH]1, the Ratio Ki (Homo sapiens [3]) was over 1, the Ratio Ki (Homo sapiens [4]) was over 57 and the Ratio Ki (Homo sapiens [5]) was over 57. For the same compound, the Ki (Adenosine receptor A1) was over 30 µM, the Ki (Adenosine receptor A2a) was over 30 µM and the Ki (Adenosine receptor A3) was 0.524 µM.
For CCOC(=O)c1sc2ncnc(N[C@@H](CCSC)C(=O)O)c2c1C, the “Serum IL-6 level” value (Rattus norvegicus [9]) was 45.72 pg/mL, the “Serum TNFalpha level” value (Rattus norvegicus [10]) was 38.5 pg/mL and the “COX-2 level in liver homogenate” value (Rattus norvegicus [11]) was 28.5 ng/mL. The “NFkappaB level in liver tissue” value (Rattus norvegicus [12]) was 66.17 pg/mL.
For Cc1cc2c(OCc3cc(-c4ccc(Cl)cc4)no3)ncnc2s1, the IC50 (HCT-116) was 6.69 µM and the IC50 (A549) was 2.79 µM.
For CCc1cc2c(OCc3cc(-c4ccc(Cl)cc4)no3)ncnc2s1, the IC50 (HCT-116) was 33.3 µM and the IC50 (A549) was 45.5 µM.
Cc1c(-c2ccccc2)sc2nc3n(-c4ccccc4)nc(-c4ccccc4)n3c(=O)c12 gave an Activity (Mus musculus) of 52%, an inhibition in vivo at 15 mg/kg (Rattus norvegicus [1]) of 74.6% and a UI [2] of 1.1.
CC(N)c1csc(/C=N/Nc2ncnc3sc(C(C)(C)CF)cc23)n1 (stereo unspecified) showed an IC50 [13] of 0.68 µM, an IC50 [14] of 0.046 µM and a Ratio IC50 (Homo sapiens [15]) of 14.7.
In the case of CCOC(=O)c1sc2ncnc(N[C@@H](CC(=O)O)C(=O)O)c2c1C, the “Serum IL-6 level” value (Rattus norvegicus [9]) is reported as 59.85 pg/mL, the “Serum TNFalpha level” value (Rattus norvegicus [10]) is reported as 51.35 pg/mL and the “COX-2 level in liver homogenate” value (Rattus norvegicus [11]) is reported as 40.5 ng/mL. The “NFkappaB level in liver tissue” value (Rattus norvegicus [12]) was 88.17 pg/mL.
Work on Nc1nc(-n2ccnc2)c2c3c(sc2n1)CCCC3 yielded a Ratio Ki (Homo sapiens [3]) of 2.6, a Ratio Ki (Homo sapiens [4]) of over 0.35 and a Ratio Ki (Homo sapiens [5]) of over 0.14. For the same compound, the Ki (Adenosine receptor A1) was 10.4 µM, the Ki (Adenosine receptor A2a) was 4.06 µM and the Ki (Adenosine receptor A3) was over 30 µM.
Cc1nc(SCCO)c2c3c(sc2n1)CCc1ccccc1-3 showed an Activity (Human alphaherpesvirus 1 [6]) of 40% and an Activity (Human alphaherpesvirus 1 [7]) of 75%.
For CC1(C)S[C@@H]2[C@H](NC(=O)[C@H](N)c3ccc(O)cc3)C(=O)N2[C@H]1C(=O)O [AMOXICILLIN], the zone of inhibition at 100 µg/mL (Klebsiella pneumoniae) was 18 mm, the zone of inhibition at 100 µg/mL (Bacillus subtilis) was 15.5 mm and the zone of inhibition at 100 µg/mL (Escherichia coli) was 19.5 mm. For the same compound, the zone of inhibition at 100 µg/mL (Staphylococcus aureus) was 17.6 mm.
